Earlier results, collected in article PMC10705946, “^225Ac-iPSMA-RGD for Alpha-Therapy Dual Targeting of Stromal/Tumor Cell PSMA and Integrins” (International Journal of Molecular Sciences, 2023).
Ends that are not written are not given here.

Test system: glioma cells
Design: method as in PMID 29611298
Settings: after 24 h of treatment, cells overexpressing the substance P receptor; cited from earlier work

Substance: ^225Ac-labeled substance P: ^225Ac-labeled ligand of the neurokinin-1 receptor (RPKPQQFFGLM; ends and bridges not checked; also: 225Ac radiolabel, attachment not given here; UniProt P20366 58-68, looked up)
- Increase of apoptotic cells: 25%
